The IC50 is the concentration that gives 50% inhibition.

This is an account of results in patent US20060040917A1, “Benzoxazepine derivatives as selective estrogen receptor modulators” (priority 2004, published 2006).

One test deals with T1, hER-β (Homo sapiens, UniProt Q92731).
T1 construct: purchased Panvera
Put plainly: Estrogen Receptor β Fluorescence Polarization Assay. To be noted: displacement of Fluormone ES2, fluorescence polarization, 1 h room temperature; read-out: ERβ Binding IC50. The source says:
Estrogen Receptor β Fluorescence Polarization Assay
This assay monitors binding of a fluorescent analog of estrogen (Fluormone ES2, Panvera) to the estrogen receptor. Plates are read in a fluorometer that can be set to polarization mode. A decrease in […] relative to vehicle control is an indication of binding of a compound to the receptor.
It is crucial to avoid introduction of air bubbles into the reaction in each well of the 96 well plate throughout this procedure. (Bubbles on the surface of the reaction disrupt light flow, affecting the polarization reading.) However, it is also crucial to effectively mix the reaction components upon addition to the well.
On ice, a 2× standard mixture of Assay Buffer (Panvera), 10 nM DTT and 40 nM ES2 was prepared. On ice, a 2× reaction mixture of Assay Buffer (Panvera), and 20 nM hER-β (Panvera) and 40 nM ES2 was also prepared.
Dilutions of test compound were prepared in 30% (v/v) dimethyl sulfoxide/50 mM HEPES, pH 7.5. At this point, the dilutions were 40× the final required concentration.
The standard mixture at 50 μL was then added to each well. The reaction mixture at 48 μL was added to all wells. The compound dilution at 2.5 μL was added to the appropriate wells. The reaction mixtures were mixed using a manual pipette, a roll of aluminum foil adhesive cover was placed on the plate and the plate incubated at room temperature for 1 hour.
Each well on the plate was then read in an LjL Analyst with an excitation wavelength of […] and an emission wavelength of 538.
(§1) Representative compound of the present invention were tested according to the procedure described above for binding to the Estrogen Receptor a and Estrogen Receptor β, with results as listed in Table 6.

The target of test [1] is T2, human estrogen receptor α (Homo sapiens, UniProt P03372).
T2 construct: purchased Panvera
T2 sequence (P03372 1-595): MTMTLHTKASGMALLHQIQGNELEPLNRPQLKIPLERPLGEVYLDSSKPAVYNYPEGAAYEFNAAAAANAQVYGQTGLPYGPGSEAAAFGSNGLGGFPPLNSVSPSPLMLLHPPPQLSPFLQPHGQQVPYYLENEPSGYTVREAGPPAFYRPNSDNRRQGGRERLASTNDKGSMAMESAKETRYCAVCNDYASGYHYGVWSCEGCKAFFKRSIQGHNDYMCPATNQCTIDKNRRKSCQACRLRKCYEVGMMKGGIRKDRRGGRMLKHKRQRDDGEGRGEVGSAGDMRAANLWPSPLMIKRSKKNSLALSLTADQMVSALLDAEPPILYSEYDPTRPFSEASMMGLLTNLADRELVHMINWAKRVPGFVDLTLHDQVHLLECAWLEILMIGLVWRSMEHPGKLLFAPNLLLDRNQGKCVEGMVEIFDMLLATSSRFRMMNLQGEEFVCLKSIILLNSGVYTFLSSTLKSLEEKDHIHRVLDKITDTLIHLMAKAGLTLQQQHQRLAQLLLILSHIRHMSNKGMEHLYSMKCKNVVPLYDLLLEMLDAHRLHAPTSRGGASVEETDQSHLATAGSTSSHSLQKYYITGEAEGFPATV
In words: Estrogen Receptor α Flash Plate Assay. The conditions noted are these: displacement of radio-labeled estrogen (0.5 nM), FlashPlate, 1 h room temperature; read-out: ERα Binding IC50. As for the experimental part:
Estrogen Receptor α Flash Plate Assay
This assay monitors binding of radio-labeled estrogen to the estrogen receptor. It is performed on a BioMek 2000 (Beckman). Plates are read in a scintillation counter (Packard TopCount), with decreased counts an indication of binding of a compound to the receptor. The assay was run according to the procedure described by Allan, et al., Anal. Biochem. (1999), 275(2), 243-247.
On day one, 100 μL of Estrogen Screening Buffer (ESB, Panvera) containing 5 mM dithiothreitol (DTT, Panvera), 0.5 μg mouse anti-estrogen receptor monoclonal antibody (SRA-1010, Stressgen) and 50 ng purified human estrogen receptor α (Panvera) were added to each well of a 96 well FlashPlate Plus plate crosslinked with goat anti-mouse antibodies (NEN Life Sciences). The plate was sealed and incubated at 4° C. overnight.
On day two, each well was washed three times with 200 μL PBS, pH 7.2, at room temperature. To each well was then added 98 μL radio-labeled estrogen (0.5 nM, which equals 6 nCi for a 120 Ci/mmol batch, Amersham), diluted in ESB and 5 mM dithiothreitol (DTT). To individual wells were then added 2.5 μL test compound diluted in 30% (v/v) dimethyl sulfoxide/50 mM HEPES, pH 7.5. The wells were mixed three times by aspiration, the plate sealed and incubated at room temperature for one hour. The wells were then counted for 1 min in a TopCount scintillation counter (Packard).
as §1

T1 sequence (Q92731 whole entry): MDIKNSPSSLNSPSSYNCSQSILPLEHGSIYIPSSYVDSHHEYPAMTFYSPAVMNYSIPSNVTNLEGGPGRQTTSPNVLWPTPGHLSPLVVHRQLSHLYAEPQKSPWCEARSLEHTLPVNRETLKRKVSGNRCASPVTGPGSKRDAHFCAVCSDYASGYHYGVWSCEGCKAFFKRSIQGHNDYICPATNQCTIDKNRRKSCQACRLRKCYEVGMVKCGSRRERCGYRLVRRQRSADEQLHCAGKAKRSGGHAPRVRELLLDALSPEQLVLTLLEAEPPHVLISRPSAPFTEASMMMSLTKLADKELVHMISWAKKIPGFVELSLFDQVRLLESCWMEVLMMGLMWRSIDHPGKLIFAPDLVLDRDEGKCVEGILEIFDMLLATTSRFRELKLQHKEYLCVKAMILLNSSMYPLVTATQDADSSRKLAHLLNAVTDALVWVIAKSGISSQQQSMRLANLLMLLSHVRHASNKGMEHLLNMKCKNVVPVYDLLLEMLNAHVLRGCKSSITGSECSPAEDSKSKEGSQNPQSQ

In the case of `COc1cccc(C2COc3cc(OC)ccc3N(C(=O)c3ccc(OCCN(C)C)cc3)C2)c1` (centres unmarked) [Compound 8], the IC50 is greater than 100000 nM on hER-β and 2900 nM in test [1].

As to `CN(C)CCOc1ccc(C(=O)N2CC(c3cccc(O)c3)COc3cc(O)ccc32)cc1` (centres unmarked) [Compound 9], the IC50 at hER-β is 26000 nM; in test [1] it was 530 nM.

Turning to `Oc1ccc(C2COc3cc(O)ccc3N(Cc3ccc(OCCN4CCCCC4)cc3)C2)cc1` (centres unmarked) [Compound 12, 7-(4-Hydroxy-phenyl)-9-[4-(2-piperidin-1-yl-ethoxy)-benzyl]-6,7,8,9-tetrahydro-5-oxa-9-aza-benzocyclohepten-3-ol], the IC50 at hER-β was 1100 nM; in test [1] it was 430 nM.

In the case of `O=C(c1cccc(OCCN2CCCCC2)c1)N1CC(c2cccc(O)c2)COc2cc(O)ccc21` (centres unmarked) [Compound 13, [3-Hydroxy-7-(3-hydroxy-phenyl)-7,8-dihydro-6H-5-oxa-9-aza-benzocyclohepten-9-yl]-[3-(2-piperidin-1-yl-ethoxy)-phenyl]-methanone], the IC50 at hER-β was 2600 nM; in test [1], 81 nM.

On to `O=C(c1ccc(OCCCl)cc1)N1CC(c2cccc(O)c2)COc2cc(O)ccc21` (centres unmarked) [Compound 14], for which the IC50 on hER-β turned out to be 1100 nM; in test [1], 24 nM.

`CC(=O)Oc1cccc(C2COc3cc(OC(C)=O)ccc3N(C(=O)c3ccc(OCCCl)cc3)C2)c1` (centres unmarked) [Compound 15]: the IC50 at hER-β was determined as 2600 nM; in test [1], 100 nM.

Turning to `CC(=O)Oc1cccc(C2COc3cc(OC(C)=O)ccc3N(Cc3ccc(OCCN4CCCCC4)cc3)C2)c1` (centres unmarked) [Compound 16], the IC50 at hER-β was 670 nM; in test [1], 120 nM.

In the case of `Oc1ccc(C2COc3cc(O)ccc3N(Cc3cccc(OCCCl)c3)C2)cc1` (centres unmarked) [Compound 18, 9-[3-(2-Chloro-ethoxy)-benzyl]-7-(4-hydroxy-phenyl)-6,7,8,9-tetrahydro-5-oxa-9-aza-benzocyclohepten-3-ol], the IC50 came out at 88 nM on hER-β and 66 nM in test [1].

With `COCOc1ccc(C2COc3cc(OCOC)ccc3N(Cc3cccc(OCCCl)c3)C2)cc1` (centres unmarked) [Compound 19, 9-[3-(2-Chloro-ethoxy)-benzyl]-3-methoxymethoxy-7-(4-methoxymethoxy-phenyl)-6,7,8,9-tetrahydro-5-oxa-9-aza-benzocycloheptene], the IC50 (at hER-β; in test [1]) was greater than 1000 nM in each case.

Take `COCOc1ccc(C2COc3cc(OCOC)ccc3N(Cc3cccc(OCCN4CCCCC4)c3)C2)cc1` (centres unmarked) [Compound 20, 3-Methoxymethoxy-7-(4-methoxymethoxy-phenyl)-9-[3-(2-piperidin-1-yl-ethoxy)-benzyl]-6,7,8,9-tetrahydro-5-oxa-9-aza-benzocycloheptene]: the IC50 (on hER-β; in test [1]) was greater than 1000 nM throughout.

Consider `COCOc1ccc(C2COc3cc(OCOC)ccc3N(Cc3cccc(OCCN4CCOCC4)c3)C2)cc1` (centres unmarked) [Compound 21], for which the IC50 (on hER-β; in test [1]) was greater than 1000 nM each time.

With `Oc1ccc(C2COc3cc(O)ccc3N(Cc3cccc(OCCN4CCCCC4)c3)C2)cc1` (centres unmarked) [Compound 22, 7-(4-Hydroxy-phenyl)-9-[3-(2-piperidin-1-yl-ethoxy)-benzyl]-6,7,8,9-tetrahydro-5-oxa-9-aza-benzocyclohepten-3-ol], the values for the IC50 (on hER-β; in test [1]) were 560 nM and 52 nM, respectively.

As for `Oc1ccc(C2COc3cc(O)ccc3N(Cc3cccc(OCCN4CCOCC4)c3)C2)cc1` (centres unmarked) [Compound 23], the IC50 on hER-β was found to be 870 nM; in test [1], 350 nM.

`Oc1cccc(C2COc3cc(O)ccc3N(Cc3cccc(OCCCl)c3)C2)c1` (centres unmarked) [Compound 24]: the concentration for half-maximal inhibition (IC50) at hER-β stood at 92 nM; in test [1] it was 56 nM.

As to `Oc1cccc(C2COc3cc(O)ccc3N(Cc3cccc(OCCN4CCCCC4)c3)C2)c1` (centres unmarked) [Compound 25], the IC50 on hER-β was determined as 300 nM; in test [1] it was 22 nM.

For the molecule `CC(C)(C)C(=O)Oc1ccc(C2COc3cc(OC(=O)C(C)(C)C)ccc3N(Cc3cccc(OCCN4CCCCC4)c3)C2)cc1` (centres unmarked) [Compound 26], the IC50 (at hER-β; in test [1]) was greater than 1000 nM in each case.
